According to patent publication US9084815B2, “Method for treating damage induced by an anti-tumor agent, treating mucositis and treating tumor” (SUCAMPO AG, priority 2009, dated 2015):

How the values were obtained:
[1] = system: 5-FU induced toxicity (ileum tissue damage); assay: Effects of Compound A against 5-FU induced toxicity: histopathological tissue damage score of ileum; format: in vivo; settings: for Total score (tissue damage): 5-FU 50 mg/kg i.p. Day 1 to 4, ileum H&E on Day 7
Protocol: After 1 week of acclimatization period, the experiment started (Day 0). Compound A ((−)-7-{(2R,4aR,5R,7aR)-2-[(3S)-1,1-difluoro-3-methylpentyl]-2-hydroxy-6-oxooctahydrocyclopenta[b]pyran-5-yl}heptanoic acid) (3, 10, 30 μg/kg) or vehicle was administered orally once daily for 5 days from Day 0 to 4 (Schedule 1). In other dosing schedule group, Compound A (30 μg/kg) was administered orally once daily from Day 4 to Day 6 (Schedule 2). 5-FU (50 mg/kg) was administered intraperitoneally once daily for 4 days from Day 1 to 4. On Day 1, 2, 3, and 4,5-FU was administered immediately after administration of Compound A or vehicle. During the experiment period (Day 0-7), animals were weighed every day. On Day 7, the animals were anesthetized by isofluran. Ileum was excised and fixed in 10% formalin. Paraffin-embedded sections were prepared and stained with H&E for histopathological evaluation of tissue damage. The tissue damage was graded according to the following criteria: • 0. No change, • 1: slight, • 2: mild, • 3: moderate, • 4: severe The effect of each compound was evaluated using total score of tissue damage.

[2] = system: stomatitis aggravated by 5-FU (cheek pouch mucosa); assay: Effects of Compound A on stomatitis: 5-FU plus cheek pouch scratching, hamster; format: in vivo, Golden Syrian hamsters
Protocol: Male Golden Syrian hamsters (5 weeks old) were used. After 1 week acclimatization period, the hamsters were administered intraperitoneally with 60 mg/kg 5-fluorouracil (5-FU) (Day 1). 5-FU administration was repeated again on Day 2. On Day 4, the cheek pouch mucosa of the hamsters is mechanically irritated under anesthesia by superficial scratching with the tip of an 18-gauge needle to produce transient erythema. On Day 8 and 10, the same scratching procedure was conducted and 5-FU administration was done. The Compound A at the doses of 24 μg/site or vehicle was topically applied to the cheek pouches from Day 1 to Day 14. During the treatment, the cheek pouch mucosa was macroscopically observed and the buccal lesion was scored according to the following criteria (stomatitis score): • 0: Normal mucosa • 1: Erythema was observed • 2: Severe erythema was observed • 3: Severe erythema and formation of ulcers in one or more places were observed. Cumulative size of the ulcers involves ˜25% of the pouch mucosa. Pseudomembrane formation was evident. • 4: Severe erythema and formation of ulcers were observed. Cumulative size of the ulcers involved about half of the pouch mucosa. Loss of mucosal pliability. • 5: diffuse, extensive ulceration. Loss of mucosal pliability. […] Severity of stomatitis was evaluated using the mean of scores per treatment group.

CC[C@H](C)CC(F)(F)[C@@]1(O)CC[C@H]2[C@@H](CC(=O)[C@@H]2CCCCCCC(=O)O)O1 [Compound A, (−)-7-{(2R,4aR,5R,7aR)-2-[(3S)-1,1-difluoro-3-methylpentyl]-2-hydroxy-6-oxooctahydrocyclopenta[b]pyran-5-yl}heptanoic acid]
Total score (tissue damage) ([1]; Compound A 3 μg/kg orally once daily, Schedule 1 (Day 0 to 4)): 10.0
Total score (tissue damage) ([1]; Compound A 10 μg/kg orally once daily, Schedule 1 (Day 0 to 4)): 5.0
Total score (tissue damage) ([1]; Compound A 30 μg/kg orally once daily, Schedule 1 (Day 0 to 4)): 5.7
Total score (tissue damage) ([1]; Compound A 30 μg/kg orally once daily, Schedule 2 (Day 4 to Day 6)): 4.3
Effect on total score of tissue damage (in words) ([1]; at 10 or 30 μg/kg regardless of the dosing schedule): decreased total scores
Effect on stomatitis compared to vehicle control group (in words) ([2]; 24 μg/site topical, stomatitis aggravated by 5-FU treatment): improved stomatitis
stomatitis score on Day 14 (Mean ± SE) ([2]; 24 μg/site topically to cheek pouches Day 1 to Day 14, 5-FU treatment yes, score 0-5, p < 0.05 vs. vehicle control): 0.25 ± 0.25
